From US9023882B2, “5-membered nitrogen containing heterocyclic derivatives and pharmaceutical compositions comprising the same” (Kissei Pharmaceutical Co., Ltd., priority 2007, dated 2015)

Molecular target: Xanthine oxidase (from bovine milk, Sigma) (Bos taurus (Bovine), UniProt P80457)
Assay: Xanthine oxidase inhibitory activity
Assay type: biochemical
Conditions: 0.02 units/mL, xanthine 200 μM, 10 minutes at room temperature, absorbance at 290 nm
Description: (1) Preparation of Test Compounds
Test compounds were dissolved in DMSO (Wako) at 40 mM concentration and then diluted to intended concentrations with phosphate-buffered saline (PBS).
(2) Method for Measurement
Xanthine oxidase (from bovine milk, Sigma) was prepared with phosphate-buffered saline (PBS) at 0.02 units/mL, and then the solution was added to 96 well plates at 50 μL/well. In addition, test compounds diluted with PBS were added at 50 μL/well. Xanthine (Wako) at 200 μM prepared with PBS was added at 100 μL/well, and the reaction was conducted for 10 minutes at room temperature. Absorbance at 290 nm was measured using a microplate reader SpectraMax Plus 384 (Molecular device). The absorbance under a condition without xanthine is 0%, and control without test compounds is 100%. Fifty % inhibitory concentration of a test compound (IC50) was calculated (Tables 91 to 92). Ex. No in the table indicates Example number.

Sequence of Xanthine oxidase (from bovine milk, Sigma) (P80457 whole entry): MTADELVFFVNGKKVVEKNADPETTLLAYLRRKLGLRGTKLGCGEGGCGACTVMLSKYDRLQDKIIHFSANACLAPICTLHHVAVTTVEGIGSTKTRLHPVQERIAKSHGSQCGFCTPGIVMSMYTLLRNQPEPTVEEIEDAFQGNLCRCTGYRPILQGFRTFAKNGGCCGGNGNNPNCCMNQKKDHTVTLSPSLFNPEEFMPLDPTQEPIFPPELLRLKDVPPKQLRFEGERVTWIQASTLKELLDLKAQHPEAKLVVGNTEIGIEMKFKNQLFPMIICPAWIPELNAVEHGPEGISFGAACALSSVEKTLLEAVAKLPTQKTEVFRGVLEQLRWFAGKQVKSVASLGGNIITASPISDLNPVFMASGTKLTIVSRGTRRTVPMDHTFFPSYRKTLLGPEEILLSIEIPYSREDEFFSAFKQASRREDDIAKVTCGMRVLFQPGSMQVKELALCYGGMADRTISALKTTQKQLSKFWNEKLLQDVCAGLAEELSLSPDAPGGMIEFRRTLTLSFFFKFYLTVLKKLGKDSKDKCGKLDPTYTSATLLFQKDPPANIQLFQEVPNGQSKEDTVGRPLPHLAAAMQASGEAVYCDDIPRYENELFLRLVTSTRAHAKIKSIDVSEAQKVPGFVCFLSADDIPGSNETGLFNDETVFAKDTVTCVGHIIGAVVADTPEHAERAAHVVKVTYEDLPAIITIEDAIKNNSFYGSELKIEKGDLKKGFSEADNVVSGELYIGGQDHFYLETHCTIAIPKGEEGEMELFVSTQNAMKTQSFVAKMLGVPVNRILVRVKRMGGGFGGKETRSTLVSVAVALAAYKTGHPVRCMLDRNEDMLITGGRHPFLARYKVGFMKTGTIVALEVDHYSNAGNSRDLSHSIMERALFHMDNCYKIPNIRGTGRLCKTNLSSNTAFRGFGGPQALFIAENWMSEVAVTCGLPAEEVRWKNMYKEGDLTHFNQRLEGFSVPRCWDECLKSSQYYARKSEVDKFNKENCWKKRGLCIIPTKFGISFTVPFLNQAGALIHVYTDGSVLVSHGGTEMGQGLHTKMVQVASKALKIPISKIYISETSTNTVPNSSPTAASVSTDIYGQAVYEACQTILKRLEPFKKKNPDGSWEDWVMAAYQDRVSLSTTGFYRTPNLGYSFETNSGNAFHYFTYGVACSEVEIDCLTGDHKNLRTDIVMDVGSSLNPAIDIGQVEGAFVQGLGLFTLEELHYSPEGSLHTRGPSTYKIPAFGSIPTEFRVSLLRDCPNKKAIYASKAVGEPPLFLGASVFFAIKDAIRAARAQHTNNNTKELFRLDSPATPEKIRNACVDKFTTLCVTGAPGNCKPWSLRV

| Structure (SMILES) | IC50 |
| --- | --- |
| CCCCc1c(C#N)cn(-c2ccc(C(=O)O)cc2)c1C [Example 2, 4-(3-Butyl-4-cyano-2-methylpyrrole-1-yl)benzoic acid] | 17.1 nM |
| N#Cc1cn(-c2ccc(C(=O)O)cc2)nc1-c1csc2ccccc12 [Example 8, 4-(3-Benzo[b]thiophene-3-yl-4-cyanopyrazole-1-yl)benzoic acid] | 7.5 nM |
| N#Cc1cn(-c2ccc(C(=O)O)c(O)c2)cc1-c1ccccc1O [Example 12, 4-[3-Cyano-4-(2-hydroxyphenyl)pyrrole-1-yl]-2-hydroxy benzoic acid] | 5.5 nM |
| COCCOc1ccccc1-c1cn(-c2ccc(C(=O)O)c(O)c2)cc1C#N [Example 15, 4-{3-Cyano-4-[2-(2-methoxyethoxy)phenyl]pyrrole-1-yl}-2-hydroxy benzoic acid] | 13.9 nM |
| N#Cc1cn(-c2ccc(O)c(C(=O)O)c2)cc1-c1ccccc1 [Example 22, 5-(3-Cyano-4-phenylpyrrole-1-yl)-2-hydroxy-benzoic acid] | 120 nM |
| CC(=O)Nc1nn(-c2ccc(C(=O)O)cc2)cc1C#N [Example 27, 4-(3-Acetylamino-4-cyanopyrazole-1-yl)benzoic acid] | 7.1 nM |
| COCOc1cccc(-c2cn(-c3ccc(C(=O)O)cc3)cc2C#N)c1 [Example 144] | 5.8 nM |
| COCOc1ccc(-c2cn(-c3ccc(C(=O)O)cc3)cc2C#N)cc1 [Example 145] | 4.9 nM |
| N#Cc1cn(-c2ccc(C(=O)O)cc2)cc1-c1ccc(O)cc1 [Example 148] | 2.5 nM |
| N#Cc1cn(-c2ccc(C(=O)O)cc2)cc1-c1cccc(OCCCO)c1 [Example 150] | 5 nM |
| N#Cc1cn(-c2ccc(C(=O)O)cc2)cc1-c1cccc(OCCO)c1 [Example 153] | 2.4 nM |
| N#Cc1cn(-c2ccc(C(=O)O)cc2)cc1-c1ccc(OCCO)cc1 [Example 154] | 4 nM |
| N#Cc1cn(-c2ccc(C(=O)O)cc2)cc1-c1ccc(OCC(=O)O)cc1 [Example 160] | 2.1 nM |
| N#Cc1cn(-c2ccc(C(=O)O)cc2)cc1-c1ccccc1-c1ccccc1 [Example 161] | 31.9 nM |
| N#Cc1cn(-c2ccc(C(=O)O)cc2)cc1-c1cccc(-c2ccccc2)c1 [Example 162] | 55.1 nM |
| N#Cc1cn(-c2ccc(C(=O)O)cc2)cc1-c1ccccc1Oc1ccccc1 [Example 164] | 33.2 nM |
| N#Cc1cn(-c2ccc(C(=O)O)cc2)cc1-c1cccc(Oc2ccccc2)c1 [Example 165] | 32.2 nM |
| N#Cc1cn(-c2ccc(C(=O)O)cc2)cc1-c1ccc(Oc2ccccc2)cc1 [Example 166] | 52.2 nM |
| Cc1ccccc1COc1ccccc1-c1cn(-c2ccc(C(=O)O)cc2)cc1C#N [Example 167] | 83.8 nM |
| Cc1ccc(COc2ccccc2-c2cn(-c3ccc(C(=O)O)cc3)cc2C#N)cc1 [Example 169] | 56.8 nM |
| N#Cc1cn(-c2ccc(C(=O)O)cc2)cc1-c1ccccc1OCc1ccccc1F [Example 170] | 37.5 nM |
| N#Cc1cn(-c2ccc(C(=O)O)cc2)cc1-c1ccccc1OCc1cccc(F)c1 [Example 171] | 39.8 nM |
| N#Cc1cn(-c2ccc(C(=O)O)cc2)cc1-c1ccccc1OCc1ccc(F)cc1 [Example 172] | 49.1 nM |
| N#Cc1cn(-c2ccc(C(=O)O)cc2)cc1-c1cccc(OCc2cccs2)c1 [Example 173] | 41.4 nM |
| N#Cc1cn(-c2ccc(C(=O)O)cc2)cc1-c1cccc(OCc2ccsc2)c1 [Example 174] | 17.6 nM |

| Structure (SMILES) | IC50 |
| --- | --- |
| N#Cc1cn(-c2ccc(C(=O)O)cc2)cc1-c1ccccc1OCc1cccs1 [Example 175] | 27.7 nM |
| N#Cc1cn(-c2ccc(C(=O)O)cc2)cc1-c1ccccc1OCc1ccsc1 [Example 176] | 13.7 nM |
| N#Cc1cn(-c2ccc(C(=O)O)cc2)cc1-c1ccccc1OCc1ccccc1Cl [Example 177] | 54.4 nM |
| N#Cc1cn(-c2ccc(C(=O)O)cc2)cc1-c1ccccc1OCc1ccc(Cl)cc1 [Example 179] | 143 nM |
| N#Cc1cn(-c2ccc(C(=O)O)cc2)cc1-c1ccccc1OCc1ccccc1C(F)(F)F [Example 180] | 255 nM |
| COc1ccccc1COc1ccccc1-c1cn(-c2ccc(C(=O)O)cc2)cc1C#N [Example 183] | 67.3 nM |
| COc1cccc(COc2ccccc2-c2cn(-c3ccc(C(=O)O)cc3)cc2C#N)c1 [Example 184] | 71.9 nM |
| Cc1ccc(COc2cccc(-c3cn(-c4ccc(C(=O)O)cc4)cc3C#N)c2)cc1 [Example 188] | 132 nM |
| N#Cc1cn(-c2ccc(C(=O)O)cc2)cc1-c1cccc(OCc2ccccc2F)c1 [Example 189] | 63.4 nM |
| N#Cc1cn(-c2ccc(C(=O)O)cc2)cc1-c1cccc(OCc2cccc(F)c2)c1 [Example 190] | 116 nM |
| N#Cc1cn(-c2ccc(C(=O)O)cc2)cc1-c1cccc(OCc2ccc(F)cc2)c1 [Example 191] | 90.3 nM |
| N#Cc1cn(-c2ccc(C(=O)O)cc2)cc1-c1cccc(OCc2cccc(Cl)c2)c1 [Example 193] | 70.4 nM |
| COc1cccc(COc2cccc(-c3cn(-c4ccc(C(=O)O)cc4)cc3C#N)c2)c1 [Example 198] | 111 nM |
| N#Cc1cn(-c2ccc(C(=O)O)cc2)cc1-c1cccc(OCCCCO)c1 [Example 200] | 5.9 nM |
| COCCOc1cccc(-c2cn(-c3ccc(C(=O)O)cc3)cc2C#N)c1 [Example 202] | 6 nM |
| N#Cc1cn(-c2ccc(C(=O)O)cc2F)cc1-c1ccccc1 [Example 203] | 6.6 nM |
| N#Cc1cn(-c2ccc(C(=O)O)c(F)c2)cc1-c1ccccc1 [Example 208] | 5.2 nM |
| N#Cc1cccc(-c2cn(-c3ccc(C(=O)O)cc3)cc2C#N)c1 [Example 211] | 4.6 nM |
| N#Cc1ccc(-c2cn(-c3ccc(C(=O)O)cc3)cc2C#N)cc1 [Example 212] | 5.4 nM |
| CCOCCOc1ccccc1-c1cn(-c2ccc(C(=O)O)cc2)cc1C#N [Example 213] | 16.8 nM |
| CCOCCOc1cccc(-c2cn(-c3ccc(C(=O)O)cc3)cc2C#N)c1 [Example 215] | 6.7 nM |
| N#Cc1cn(-c2ccc(C(=O)O)cc2)cc1-c1cccc(OCCOc2ccccc2)c1 [Example 216] | 20.9 nM |
| COc1cn(-c2ccc(C(=O)O)cc2)cc1C#N [Example 220] | 11.1 nM |
| CCOC(=O)c1cn(-c2ccc(C(=O)O)cc2)cc1C(F)(F)F [Example 221] | 45.4 nM |

The next lines start with the values.

| IC50 | Structure (SMILES) |
| --- | --- |
| 5.8 nM | N#Cc1cn(-c2ccc(C(=O)O)cc2)nc1OCc1ccccc1 [Example 7, 4-(3-Benzyloxy-4-cyanopyrazole-1-yl)benzoic acid] |
| 7.1 nM | N#Cc1cn(-c2ccc(C(=O)O)cc2)cc1OCc1ccccc1 [Example 18, 4-(3-Cyano-4-benzyloxypyrrole-1-yl)benzoic acid] |
| 4.6 nM | COCOc1ccccc1-c1cn(-c2ccc(C(=O)O)cc2)cc1C#N [Example 143] |
| 4 nM | N#Cc1cn(-c2ccc(C(=O)O)cc2)cc1-c1ccccc1O [Example 146] |
| 2.1 nM | N#Cc1cn(-c2ccc(C(=O)O)cc2)cc1-c1cccc(O)c1 [Example 147] |
| 6 nM | N#Cc1cn(-c2ccc(C(=O)O)cc2)cc1-c1ccccc1OCCCO [Example 149] |
| 4 nM | N#Cc1cn(-c2ccc(C(=O)O)cc2)cc1-c1ccccc1OCCO [Example 152] |
| 52.4 nM | N#Cc1cn(-c2ccc(C(=O)O)cc2)cc1-c1ccccc1OCc1ccccc1 [Example 155] |
| 52.9 nM | N#Cc1cn(-c2ccc(C(=O)O)cc2)cc1-c1cccc(OCc2ccccc2)c1 [Example 156] |
| 33.8 nM | N#Cc1cn(-c2ccc(C(=O)O)cc2)cc1-c1ccc(OCc2ccccc2)cc1 [Example 157] |
| 5.1 nM | N#Cc1cn(-c2ccc(C(=O)O)cc2)cc1-c1ccccc1OCC(=O)O [Example 158] |
| 2.7 nM | N#Cc1cn(-c2ccc(C(=O)O)cc2)cc1-c1cccc(OCC(=O)O)c1 [Example 159] |
| 41.7 nM | N#Cc1cn(-c2ccc(C(=O)O)cc2)cc1-c1ccc(-c2ccccc2)cc1 [Example 163] |
| 70 nM | Cc1cccc(COc2ccccc2-c2cn(-c3ccc(C(=O)O)cc3)cc2C#N)c1 [Example 168] |
| 19.2 nM | N#Cc1cn(-c2ccc(C(=O)O)cc2)cc1-c1ccccc1OCCCCO [Example 199] |
| 11.1 nM | COCCOc1ccccc1-c1cn(-c2ccc(C(=O)O)cc2)cc1C#N [Example 201] |
| 7.1 nM | N#Cc1cn(-c2ccc(C(=O)O)cc2)cc1/C=C/c1ccccc1 [Example 206] |
| 3.8 nM | N#Cc1cn(-c2ccc(C(=O)O)cc2)cc1CCc1ccccc1 [Example 207] |
| 7.1 nM | N#Cc1cn(-c2ccc(C(=O)O)cc2)cc1-c1cccc2ccccc12 [Example 209] |
| 5.1 nM | N#Cc1cn(-c2ccc(C(=O)O)cc2)cc1-c1ccc(C(=O)O)cc1 [Example 210] |
| 5 nM | N#Cc1cn(-c2ccc(C(=O)O)cc2)cc1-c1cccc(C(=O)O)c1 [Example 217] |
| 5 nM | N#Cc1cn(-c2ccc(C(=O)O)cc2)cc1-c1cccc(CO)c1 [Example 219] |
| 10.7 nM | N#Cc1cn(-c2ccc(C(=O)O)cc2)cc1C(=O)c1ccccc1 [Example 224] |
| 7.2 nM | CNC(=O)c1cn(-c2ccc(C(=O)O)cc2)cc1C#N [Example 225] |
| 19.7 nM | CN(C)C(=O)c1cn(-c2ccc(C(=O)O)cc2)cc1C#N [Example 226] |
| 3.6 nM | N#Cc1cn(-c2ccc(C(=O)O)cc2)cc1C(=O)NCc1ccccc1 [Example 227] |
| 4.6 nM | CN(Cc1ccccc1)C(=O)c1cn(-c2ccc(C(=O)O)cc2)cc1C#N [Example 228] |
| 7.2 nM | COCCNC(=O)c1cn(-c2ccc(C(=O)O)cc2)cc1C#N [Example 229] |
| 13 nM | COCCN(C)C(=O)c1cn(-c2ccc(C(=O)O)cc2)cc1C#N [Example 230] |
